Assay results: patent publication US6914045B2, “Glycopeptide antibiotics” (Wyeth Holdings Corporation, priority 2001, dated 2005)
Values after ≈ are worked out from the molar mass of the structure shown.

Assays:
Assay in all cases: in vitro antibacterial evaluation, MIC by broth dilution
Format in all cases: cell-based
Staphylococcus sp. = details: broth dilution, 18 hours at 35° C.; for MIC Staphylococcus aureus (GC 1131): strain GC 1131
Outline: (§1)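 Broth dilution per NCCLS standard M7-A2 in Muller-Hinton II […], with an inoculum of 5×10^5 CFU/mL and antibiotic spanning 64-0.06 μg/mL. The MIC is the lowest concentration that inhibits growth of the organism.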

Streptococcus sp. = details: broth dilution, 18 hours at 35° C.
Outline: as §1

Escherichia coli = tested on: Escherichia coli
Outline: as §1

Enterococcus sp. = details: broth dilution, 18 hours at 35° C.
Outline: as §1

Compound: Cc1cc(C2OCC3OC(OC4C(CO)OC(Oc5ccc(CC6NC(=O)C(C(C)c7ccccc7)NC(=O)CNC(=O)C(CO)NC(=O)C(C(O)C7CNC(=N)N7C7OC(CO)C(O)C(O)C7O)NC(=O)C(C(O)C7CNC(=N)N7)NC6=O)cc5)C(O)C4O)C(O)C(O)C3O2)ccc1[N+](=O)[O-] (stereo not drawn) [Example 151]
- MIC Staphylococcus aureus (GC 1131) (Staphylococcus sp.; inoculum 5×10^5 CFU/mL): 8 µg/mL (≈ 5.55 µM)
- MIC Staphylococcus aureus (ATCC 29213) (Staphylococcus sp.; strain ATCC 29213): 8 µg/mL (≈ 5.55 µM)
- MIC Staphylococcus aureus (GC 1131) (Staphylococcus sp.): 8 µg/mL (≈ 5.55 µM)
- MIC Staphylococcus aureus (GC 3051) (Staphylococcus sp.; strain GC 3051): 8 µg/mL (≈ 5.55 µM)
- MIC Staphylococcus aureus (GC 3053) (Staphylococcus sp.; strain GC 3053): 16 µg/mL (≈ 11.1 µM)
- MIC Staphylococcus aureus (GC 4541) (Staphylococcus sp.; strain GC 4541): 4 µg/mL (≈ 2.77 µM)
- MIC Staphylococcus aureus (GC 4542) (Staphylococcus sp.; strain GC 4542): 8 µg/mL (≈ 5.55 µM)
- MIC Staphylococcus aureus-SMITH (GC 4543) (Staphylococcus sp.; strain GC 4543): 8 µg/mL (≈ 5.55 µM)
- MIC Staphylococcus aureus (GC 4544) (Staphylococcus sp.; strain GC 4544): 8 µg/mL (≈ 5.55 µM)
- MIC Staphylococcus aureus (GC 4545) (Staphylococcus sp.; strain GC 4545): 4 µg/mL (≈ 2.77 µM)
- MIC Staphylococcus haemolyticus (GC 4546) (Staphylococcus sp.; strain GC 4546): 2 µg/mL (≈ 1.39 µM)
- MIC Coagulase Negative Staphylococcus (GC 4547) (Staphylococcus sp.; strain GC 4547): 4 µg/mL (≈ 2.77 µM)
- MIC Coagulase Negative Staphylococcus (GC 4548) (Staphylococcus sp.; strain GC 4548): 4 µg/mL (≈ 2.77 µM)
- MIC Coagulase Negative Staphylococcus (GC 4549) (Staphylococcus sp.; strain GC 4549): 2 µg/mL (≈ 1.39 µM)
- MIC Coagulase Negative Staphylococcus (GC 4551) (Staphylococcus sp.; strain GC 4551): 8 µg/mL (≈ 5.55 µM)
- MIC Coagulase Negative Staphylococcus (GC 6257) (Staphylococcus sp.; strain GC 6257): 2 µg/mL (≈ 1.39 µM)
- MIC Staphylococcus aureus-SMITH (GC 4543) (Staphylococcus sp.; strain SMITH GC 4543): 8 µg/mL (≈ 5.55 µM)
- MIC Streptococcus agalactiae (GC 4564) (Streptococcus sp.; Streptococcus agalactiae (GC 4564)): 4 µg/mL (≈ 2.77 µM)
- MIC Streptococcus pneumoniae (ATCC 6301) (Streptococcus sp.; Streptococcus pneumoniae (ATCC 6301)): 1 µg/mL (≈ 0.693 µM)
- MIC Streptococcus pneumoniae (GC 1894) (Streptococcus sp.; Streptococcus pneumoniae (GC 1894)): 0.5 µg/mL (≈ 0.347 µM)
- MIC Streptococcus pneumoniae (GC 4565) (Streptococcus sp.; Streptococcus pneumoniae (GC 4565)): 1 µg/mL (≈ 0.693 µM)
- MIC Streptococcus pyogenes (GC 4563) (Streptococcus sp.; Streptococcus pyogenes (GC 4563)): 2 µg/mL (≈ 1.39 µM)
- MIC Streptococcus pneumoniae (ATCC 6301) (Streptococcus sp.; strain ATCC 6301): 1 µg/mL (≈ 0.693 µM)
- MIC Streptococcus pneumoniae (GC 1894) (Streptococcus sp.; strain GC 1894): 0.5 µg/mL (≈ 0.347 µM)
- MIC Streptococcus pyogenes (GC 4563) (Streptococcus sp.; strain GC 4563): 2 µg/mL (≈ 1.39 µM)
- MIC Streptococcus agalactiae (GC 4564) (Streptococcus sp.; strain GC 4564): 4 µg/mL (≈ 2.77 µM)
- MIC Streptococcus pneumoniae (GC 4565) (Streptococcus sp.; strain GC 4565): 1 µg/mL (≈ 0.693 µM)
- MIC Escherichia coli (ATCC 25922) (Escherichia coli; strain ATCC 25922, 18 hours at 35° C.): >64 µg/mL
- MIC Escherichia coli (GC 4559) (Escherichia coli; strain GC 4559, 18 hours at 35° C.): >64 µg/mL
- MIC Escherichia coli (GC 4560) (Escherichia coli; strain GC 4560, 18 hours at 35° C.): 2 µg/mL (≈ 1.39 µM)
- MIC Enterococcus avium (GC 4558) (Enterococcus sp.; Enterococcus avium (GC 4558)): 32 µg/mL (≈ 22.2 µM)
- MIC Enterococcus faecalis (ATCC 29212) (Enterococcus sp.; Enterococcus faecalis (ATCC 29212)): 32 µg/mL (≈ 22.2 µM)
- MIC Enterococcus faecalis (GC 2242) (Enterococcus sp.; Enterococcus faecalis (GC 2242)): 16 µg/mL (≈ 11.1 µM)
- MIC Enterococcus faecalis (GC 2691) (Enterococcus sp.; Enterococcus faecalis (GC 2691)): 32 µg/mL (≈ 22.2 µM)
- MIC Enterococcus faecalis (GC 3059) (Enterococcus sp.; Enterococcus faecalis (GC 3059)): 32 µg/mL (≈ 22.2 µM)
- MIC Enterococcus faecalis (GC 4552) (Enterococcus sp.; Enterococcus faecalis (GC 4552)): 32 µg/mL (≈ 22.2 µM)
- MIC Enterococcus faecalis (GC 4553) (Enterococcus sp.; Enterococcus faecalis (GC 4553)): 32 µg/mL (≈ 22.2 µM)
- MIC Enterococcus faecalis (GC 4554) (Enterococcus sp.; Enterococcus faecalis (GC 4554)): 32 µg/mL (≈ 22.2 µM)
- MIC Enterococcus faecalis (GC 6189) (Enterococcus sp.; Enterococcus faecalis (GC 6189)): 64 µg/mL (≈ 44.4 µM)
- MIC Enterococcus faecium (GC 2243) (Enterococcus sp.; Enterococcus faecium (GC 2243)): 32 µg/mL (≈ 22.2 µM)
- MIC Enterococcus faecium (GC 4556) (Enterococcus sp.; Enterococcus faecium (GC 4556)): 32 µg/mL (≈ 22.2 µM)
- MIC Enterococcus faecium (GC 4557) (Enterococcus sp.; Enterococcus faecium (GC 4557)): 8 µg/mL (≈ 5.55 µM)
- MIC Enterococcus faecalis (ATCC 29212) (Enterococcus sp.; strain ATCC 29212): 32 µg/mL (≈ 22.2 µM)
- MIC Enterococcus faecalis (GC 2242) (Enterococcus sp.; strain GC 2242): 16 µg/mL (≈ 11.1 µM)
- MIC Enterococcus faecium (GC 2243) (Enterococcus sp.; strain GC 2243): 32 µg/mL (≈ 22.2 µM)
- MIC Enterococcus faecalis (GC 2691) (Enterococcus sp.; strain GC 2691): 32 µg/mL (≈ 22.2 µM)
- MIC Enterococcus faecalis (GC 3059) (Enterococcus sp.; strain GC 3059): 32 µg/mL (≈ 22.2 µM)
- MIC Enterococcus faecalis (GC 4552) (Enterococcus sp.; strain GC 4552): 32 µg/mL (≈ 22.2 µM)
- MIC Enterococcus faecalis (GC 4553) (Enterococcus sp.; strain GC 4553): 32 µg/mL (≈ 22.2 µM)
- MIC Enterococcus faecalis (GC 4554) (Enterococcus sp.; strain GC 4554): 32 µg/mL (≈ 22.2 µM)
- MIC Enterococcus faecium (GC 4556) (Enterococcus sp.; strain GC 4556): 32 µg/mL (≈ 22.2 µM)
- MIC Enterococcus faecium (GC 4557) (Enterococcus sp.; strain GC 4557): 8 µg/mL (≈ 5.55 µM)
- MIC Enterococcus avium (GC 4558) (Enterococcus sp.; strain GC 4558): 32 µg/mL (≈ 22.2 µM)
- MIC Enterococcus faecalis (GC 6189) (Enterococcus sp.; strain GC 6189): 64 µg/mL (≈ 44.4 µM)
